Structures are written as SMILES.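 96-well plates; 48 h exposure; 5 concentrations. Endpoints by linear interpolation between flanking doses. Not reached: highest tested concentration assigned. At the TGI there is no net growth.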 Where a SMILES comes first, the peptide text is derived from it. [ ]: non-standard residue; d: D form. The star is where a group is joined. Cbz = O=C(OCc1ccccc1)*; Aib = CC(C)(N)C(=O)O

Some test systems named below: SNB-75 CNS; K-562 leukemia; ACHN renal; MDA-MB-435; T-47D breast; NCI-H226 lung; SK-MEL-28 melanoma; 786-0 renal; MALME-3M melanoma; HCT-116 colon.
Holding throughout (test): growth of human tumour cells (NCI), 48 h

In the case of `CCC(C)N1CN(c2ccccc2)C2(CCN(CCCC3(c4ccc(F)cc4)OCCO3)CC2)C1=O` (stereo not given), the TGI stood at 19.8 µM in the assay on SNB-75 CNS; 34.3 µM in the assay with K-562 leukemia; 14.9 µM in the assay on ACHN renal; 45.6 µM with MDA-MB-435; 42.5 µM in the assay on T-47D breast; 32.7 µM with NCI-H226 lung. The TGI with SK-MEL-28 melanoma is 34.4 µM; with 786-0 renal, 13.3 µM; with MALME-3M melanoma, 9.5 µM; in the assay on HCT-116 colon it was 24.9 µM.
For `CC(C)(NC(=O)C(C)(C)NC(=O)OCc1ccccc1)C(=O)O` (Cbz-[Aib]-[Aib]-OH), the TGI in the assay with SNB-75 CNS, in the assay on K-562 leukemia, with ACHN renal, with MDA-MB-435, in the assay with T-47D breast and in the assay with NCI-H226 lung was > 100 µM each time. Also, the TGI in the assay on SK-MEL-28 melanoma, with 786-0 renal, in the assay on MALME-3M melanoma and with HCT-116 colon was > 100 µM in each case.
In the case of `O=NNc1c[nH]c(=O)[nH]c1=O`, the TGI with SNB-75 CNS, with K-562 leukemia, in the assay with ACHN renal, in the assay with MDA-MB-435, with T-47D breast and in the assay on NCI-H226 lung was > 100 µM each time. In addition, the TGI in the assay with SK-MEL-28 melanoma, in the assay on 786-0 renal, with MALME-3M melanoma and in the assay with HCT-116 colon was > 100 µM throughout.
Consider `O=C(O)C1CSC2(CCCN(Cc3ccccc3)C2)N1` (stereo not given), for which the TGI is > 100 µM in the assay on SNB-75 CNS; > 81.1 µM with K-562 leukemia; > 100 µM with ACHN renal; > 100 µM in the assay on MDA-MB-435; > 100 µM in the assay with T-47D breast; > 100 µM in the assay with NCI-H226 lung. Besides, the TGI in the assay with SK-MEL-28 melanoma, in the assay on 786-0 renal, in the assay on MALME-3M melanoma and with HCT-116 colon was > 100 µM throughout.
Turning to `CC1CN=C(c2ccc(CN3CCC(CCCC4CCN(Cc5ccc(C6=NCC(C)N6)cc5)CC4)CC3)cc2)N1` (stereo not given), the TGI in the assay with SNB-75 CNS is 87.6 µM; in the assay on K-562 leukemia, > 100 µM; in the assay with ACHN renal, > 100 µM; in the assay with MDA-MB-435 it was 36.7 µM; with T-47D breast, > 100 µM; in the assay on NCI-H226 lung, > 100 µM. Besides, the TGI in the assay on SK-MEL-28 melanoma, with 786-0 renal, in the assay with MALME-3M melanoma and in the assay on HCT-116 colon was > 100 µM in each case.
As to `O=C(O)c1cccc(S(=O)(=O)NN2C(=O)CSC2c2c(O)ccc3ccccc23)c1` (stereo not given), the TGI with SNB-75 CNS is > 100 µM; in the assay with K-562 leukemia, > 100 µM; in the assay with ACHN renal it was > 100 µM; in the assay with MDA-MB-435, > 100 µM; in the assay with T-47D breast, 80.5 µM; in the assay with NCI-H226 lung, > 100 µM. In addition, the TGI was 79.2 µM with SK-MEL-28 melanoma, > 100 µM with 786-0 renal, 90.6 µM in the assay on MALME-3M melanoma and 38.5 µM in the assay on HCT-116 colon.
For the compound `Cn1c(-c2c(C3=CC(=O)N(c4ccccc4)C3=O)c3ccccc3n2C)cc2ccccc21`, the TGI in the assay on SNB-75 CNS, in the assay with K-562 leukemia, in the assay on ACHN renal, in the assay on MDA-MB-435, with T-47D breast and in the assay with NCI-H226 lung was > 100 µM each time. Also, the TGI in the assay with SK-MEL-28 melanoma, in the assay on 786-0 renal, with MALME-3M melanoma and in the assay on HCT-116 colon was > 100 µM in each case.
With `CC(C)(CO)CNc1cc(Cl)nc(N)n1`, the TGI with SNB-75 CNS, in the assay on K-562 leukemia, in the assay on ACHN renal, with MDA-MB-435, in the assay with T-47D breast and with NCI-H226 lung was > 100 µM each time. For the same compound, the TGI in the assay with SK-MEL-28 melanoma, in the assay with 786-0 renal, in the assay with MALME-3M melanoma and in the assay with HCT-116 colon was > 100 µM each time.
On to `NNS(=O)(=O)c1ccc(/C=C2\NC(=O)NC2=O)cc1`, for which the TGI in the assay with SNB-75 CNS, with K-562 leukemia, with ACHN renal, in the assay with MDA-MB-435, in the assay on T-47D breast and in the assay on NCI-H226 lung was > 100 µM throughout. In addition, the TGI with SK-MEL-28 melanoma, with 786-0 renal, in the assay with MALME-3M melanoma and with HCT-116 colon was > 100 µM in each case.
As to `COc1ccc(C2NC(N)=C(C#N)C3=C2C(C)CCC3)cc1OC` (stereo not given), the TGI is 16.7 µM in the assay on SNB-75 CNS; > 100 µM in the assay with K-562 leukemia; > 100 µM in the assay on ACHN renal; > 100 µM in the assay on MDA-MB-435; > 100 µM in the assay on T-47D breast; > 100 µM with NCI-H226 lung. The TGI in the assay on SK-MEL-28 melanoma, in the assay with 786-0 renal, in the assay on MALME-3M melanoma and in the assay on HCT-116 colon was > 100 µM in each case.
As for `CSc1c(C)n([O-])c2cc(Cl)c(Cl)cc2[n+]1=O`, the TGI was > 69.4 µM with SNB-75 CNS; 11.1 µM in the assay with K-562 leukemia; 30.7 µM in the assay with ACHN renal; 36.7 µM in the assay on MDA-MB-435; 50 µM in the assay on T-47D breast; 27.1 µM in the assay with NCI-H226 lung. The TGI came out at 39 µM in the assay on SK-MEL-28 melanoma, 33.2 µM with 786-0 renal, 33 µM in the assay on MALME-3M melanoma and 32 µM in the assay on HCT-116 colon.
Regarding `COc1ccc(/N=N/C(=NNC(=O)c2ccc(C)cc2)c2ccc(N(C)C)cc2)cc1`, the TGI in the assay with SNB-75 CNS is > 100 µM; in the assay with K-562 leukemia, > 100 µM; with ACHN renal it was > 89.9 µM; in the assay on MDA-MB-435, 62.7 µM; in the assay on T-47D breast, > 33.8 µM; in the assay with NCI-H226 lung, > 100 µM. The TGI in the assay on SK-MEL-28 melanoma is > 100 µM; with 786-0 renal, > 100 µM; with MALME-3M melanoma it was 94.6 µM; in the assay with HCT-116 colon, > 100 µM.
